{"source": "patent US20190382454A1", "about": "“A MODIFIED PEPTIDE AS AN ANTICANCER AGENT” (Amrita Therapeutics Limited, priority 2015, published 2019)", "key": {"HCT116 cells (carcinoma)": {"test_system": "HCT116 cells (carcinoma)", "test": "HCT116 xenograft in SCID mice", "assay_type": "in vivo", "conditions": "25 mg/kg daily, 21 days of treatment", "description": "(§1) SCID mice were injected subcutaneously with either 1 million HCT116 cells (carcinoma) or HT29 cells (adenocarcinoma) both of which are colon cancer cells. After 2 weeks tumors developed could be seen and the process of injecting AT-01C peptide was initiated. For HCT116 xenograft mice model AT-01C peptide of 25 mg/kg body weight of mice was injected intra-peritoneally. In case of HT29 xenograft mice model AT-01C peptide of 50 mg/kg body weight of mice was injected intra-peritoneally. Stock concentration of the AT-01C was 10 mg/ml. Both the mice group were injected with AT-01C peptide for 21 days daily just 5 mm away from the tumors. The daily injection was performed by injecting AT-01C surrounding the tumors being developed. After 21 days of injection tumors excised and their weight and volume was measured.\n(§2) Tumors raised in SCID mice by subcutaneously injecting either 1 million HCT116 cells or HT29 cells (Xenograft model). After tumors developed and were visible to eyes AT-01C peptide treatment was started. For tumors raised using HCT116 colon cancer cells AT-01C of 25 mg/kg body weight of mice was injected intra-peritoneally. AT-01C peptide of 50 mg/kg body weight was injected intra-peritoneally as treatment for tumors raised with HT29 cells. AT-01C was injected daily surrounding the tumor 5 mm away from it. After 21 days of peptide injection, mice were sacrificed and tumors excised. […]"}, "[1]": {"test_system": "HT29 cells (adenocarcinoma)", "test": "HT29 xenograft in SCID mice", "assay_type": "in vivo", "conditions": "50 mg/kg daily, 21 days of treatment", "description": "as §1, §2"}, "SMAR1 [2]": {"test_system": "SMAR1", "test": "Peptide interaction assay by ITC, SMAR1", "assay_type": "binding", "conditions": "25° C."}, "SMAR1 [3]": {"molecular_target": "T1, SMAR1 (Homo sapiens, UniProt Q8N9N5)", "T1 construct": "HCT116 cells treated with different available peptides for 48 hours stabilized SMAR1 expression; endogenous in cells; host or cells: HCT116 p53+/+, HCT116 p53-/-, MCF7, SW620, NCI-H522, MDA-MB231", "T1 sequence (Q8N9N5 1-519)": "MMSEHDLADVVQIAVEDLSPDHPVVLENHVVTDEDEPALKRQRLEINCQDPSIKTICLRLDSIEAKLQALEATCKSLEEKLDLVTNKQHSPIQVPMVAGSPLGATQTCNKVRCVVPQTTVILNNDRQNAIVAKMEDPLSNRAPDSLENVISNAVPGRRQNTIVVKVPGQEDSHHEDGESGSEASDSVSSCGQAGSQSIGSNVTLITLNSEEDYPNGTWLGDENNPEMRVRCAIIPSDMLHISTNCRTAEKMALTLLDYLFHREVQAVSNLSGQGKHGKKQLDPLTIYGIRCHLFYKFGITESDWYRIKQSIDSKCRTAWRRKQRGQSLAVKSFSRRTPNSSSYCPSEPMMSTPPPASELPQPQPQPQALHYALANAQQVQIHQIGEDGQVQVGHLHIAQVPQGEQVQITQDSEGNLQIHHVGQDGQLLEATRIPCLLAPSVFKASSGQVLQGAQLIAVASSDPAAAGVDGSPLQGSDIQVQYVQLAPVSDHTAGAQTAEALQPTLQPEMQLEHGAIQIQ", "test": "SMAR1 stabilization/induction in HCT116 cells (western blot)", "assay_type": "cell-based", "conditions": "peptide treatment 48 hours"}, "SMAR1 [4]": {"test_system": "SMAR1", "test": "PCR of SMAR1 mRNA in HCT116p53+/+ cells", "conditions": "48 hours"}, "SMAR1 [5]": {"molecular_target": "T1, SMAR1", "test": "SMAR1 induction in HCT116p53-/- cells", "assay_type": "cell-based"}, "MDA-MB231 cells": {"test_system": "MDA-MB231 cells", "test": "Annexin V staining by flow cytometry (FACS)", "assay_type": "cell-based, Human", "conditions": "after peptide treatment"}, "[6]": {"test_system": "MDA-MB231 breast cancer cells", "test": "Wound healing / cell migration assay", "assay_type": "cell-based, Human", "conditions": "MDA-MB231, 10 μg peptide, recorded up to 16 hours, vs DMSO control", "description": "MDA-MB231 breast cancer cells (1×10^^6) were seeded in a 6 well plate and maintained in L15 DMEM medium supplemented with 10% FBS and 100 Units of Penicillin Streptomycin antibiotics for 24 hours. Cells were treated for 24 hours with AT-01C and AT-01D peptides of 10 μg each. Post 24 hours wound was created and washed with medium to remove the cells detached during wound creation. Fresh peptides were added plate was mounted at the microscope chamber maintaining the temperature of 37° C. Images were acquired in NIKON Confocal Microscope for 5 minutes interval. Time lapse was set for 16 hours and images were compiled to make the video movie of the cell migration."}, "SMAR1 [7]": {"molecular_target": "T1, SMAR1", "test": "SMAR1 stabilization across a variety of cancer cell lines (MCF7, SW620, NCI-H522, HCT116p53-/-, MDA-MB231)", "assay_type": "cell-based", "conditions": "different concentrations"}, "HCT116 cells": {"test_system": "HCT116 cells", "test": "Colony formation assay", "assay_type": "cell-based", "description": "200 HCT116 cells seeded in 35 mm petri dishes and cultured for 24 hours. 10 μg of AT-01D added fresh every two days up to day 12th. Cell were washed with 1× Phosphate Buffer Saline and then fixed using 3% Para-formaldehyde for 10 minutes. Cells were washed and stained with Crystal violet for 30 minutes. After washing with PBS plates were kept inverted and air dried. Colonies were counted using inverted bright field microscope (Nikon). A group of cells were identified to be a colony that consists of more than 50 cells."}, "[8]": {"molecular_target": "T2, Scaffold Matrix Attachment Region Binding Protein 1 (SMAR1), full length (UniProt Q8N9N5 1-519)", "T2 construct": "This molecule also stands for endogenous SMAR1 of HCT116 cells in the functional rows", "T2 sequence": "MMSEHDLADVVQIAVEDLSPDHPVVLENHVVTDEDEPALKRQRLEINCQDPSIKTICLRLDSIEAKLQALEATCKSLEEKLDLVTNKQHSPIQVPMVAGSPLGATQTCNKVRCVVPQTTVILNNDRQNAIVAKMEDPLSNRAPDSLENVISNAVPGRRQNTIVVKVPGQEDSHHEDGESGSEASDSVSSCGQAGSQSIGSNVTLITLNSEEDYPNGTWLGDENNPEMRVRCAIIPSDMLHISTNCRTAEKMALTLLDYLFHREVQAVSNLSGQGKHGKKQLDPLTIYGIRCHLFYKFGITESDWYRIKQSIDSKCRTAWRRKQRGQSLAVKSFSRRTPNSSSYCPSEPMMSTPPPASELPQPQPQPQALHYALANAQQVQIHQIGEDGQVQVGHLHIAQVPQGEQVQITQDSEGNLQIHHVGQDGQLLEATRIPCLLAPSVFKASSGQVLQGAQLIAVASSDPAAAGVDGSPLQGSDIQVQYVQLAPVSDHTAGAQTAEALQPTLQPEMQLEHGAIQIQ", "test": "ITC, 25 C"}}, "note": "Entries after “also recorded” stand apart in the source; their conditions may differ. Ends that are not written are not given here.", "data": [{"molecule": "ATATVNAIRGSVTPAVSQFN [AT-01C]", "values": [{"measurement": "survival of mice", "setting": "HCT116 cells (carcinoma)", "value": "All the mice survived"}, {"measurement": "survival of mice", "setting": "[1]", "value": "All the mice survived"}]}, {"molecule": "GQVWEATATVNAIRGSVTPAVSQFNARTAD (The sequence is developed from MPT63 of M. tuberculosis) [AT-01, 30 amino acid peptide synthesized from MPT-63 of M. tuberculosis]", "values": [{"measurement": "interaction with SMAR1 (ITC)", "setting": "SMAR1 [2]", "value": "failed to interact with SMAR1"}, {"measurement": "SMAR1 stabilization / induction", "setting": "SMAR1 [3]", "value": "very less or no induction of SMAR1"}]}, {"molecule": "NAIRGSVTPAVSQFN (The sequence is developed from MPT63 of M. tuberculosis) [AT-01D, 15 amino acid peptide derived from AT01]", "values": [{"measurement": "transcriptional regulation of SMAR1 (PCR)", "setting": "SMAR1 [4]", "value": "failed to control the transcriptional regulation of SMAR1"}, {"measurement": "induction of SMAR1", "setting": "SMAR1 [5]", "value": "induction of SMAR1 was observed"}, {"measurement": "cell death (Annexin V)", "setting": "MDA-MB231 cells", "value": "no signs of cell death"}, {"measurement": "interaction with SMAR1 (ITC)", "setting": "SMAR1 [2]", "value": "positive results"}, {"measurement": "SMAR1 stabilization / induction", "setting": "SMAR1 [3]", "value": "heightened effectiveness; also recorded: superior induction of SMAR1; also recorded: stabilized SMAR1 the most; also recorded: significantly induce expression of SMAR1"}, {"measurement": "cell migration", "setting": "[6]", "value": "mitigation of anticipated cell migration; also recorded: attenuate migration"}, {"measurement": "SMAR1 stabilization", "setting": "SMAR1 [7]", "value": "heightened effectiveness"}, {"measurement": "colony formation / rate of cell proliferation", "setting": "HCT116 cells; HCT116, 10 μg, 12 days, vs DMSO control", "value": "delayed or decreased"}, {"measurement": "apoptotic cells in colony formation culture", "setting": "HCT116 cells; HCT116, till the 12th day", "value": "No apoptotic cells or group of cells observed"}]}, {"molecule": "GQVWEATATVNAIRGSVTPAVSQFNARTAD (also called parent 30 amino acid peptide)", "note": "[AT-01]", "values": [{"measurement": "binding result", "setting": "[8]", "value": "no binding"}]}]}
